Tests used:
ER [1] = biological target: T1, ER (Homo sapiens, UniProt P03372); experiment: Co-transfection assay, ER agonist mode; assay type: cell-based
T1 construct: expressed in transfected cells; host or cells: CV-1 cells
Procedure: (§1) CV-1 cells (African green monkey kidney fibroblasts) were cultured in the presence of Dulbecco's Modified Eagle Medium (DMEM) supplemented with 10% charcoal resinstripped fetal bovine serum then transferred to 96-well microtiter plates one day prior to transfection.
(§2) Three to four replicates were used for each sample.
(§3) After 40 hours, the cells were washed with PBS, lysed with a Triton X-100-based buffer and assayed for LUC and β-Gal activities using a luminometer or spectrophotometer, respectively. For each replicate, the normalized response (NR) was calculated as: LUC response/β-Gal rate where β-Gal rate = β-Gal•1x10^-5/β-Gal incubation time.

ER [2] = biological target: T1, ER; experiment: Co-transfection assay, ER antagonist mode; assay type: cell-based
Procedure: as §1, §2, §3

GR = biological target: T2, GR (Homo sapiens, UniProt P04150); experiment: cell-based
T2 sequence (P04150 1-777): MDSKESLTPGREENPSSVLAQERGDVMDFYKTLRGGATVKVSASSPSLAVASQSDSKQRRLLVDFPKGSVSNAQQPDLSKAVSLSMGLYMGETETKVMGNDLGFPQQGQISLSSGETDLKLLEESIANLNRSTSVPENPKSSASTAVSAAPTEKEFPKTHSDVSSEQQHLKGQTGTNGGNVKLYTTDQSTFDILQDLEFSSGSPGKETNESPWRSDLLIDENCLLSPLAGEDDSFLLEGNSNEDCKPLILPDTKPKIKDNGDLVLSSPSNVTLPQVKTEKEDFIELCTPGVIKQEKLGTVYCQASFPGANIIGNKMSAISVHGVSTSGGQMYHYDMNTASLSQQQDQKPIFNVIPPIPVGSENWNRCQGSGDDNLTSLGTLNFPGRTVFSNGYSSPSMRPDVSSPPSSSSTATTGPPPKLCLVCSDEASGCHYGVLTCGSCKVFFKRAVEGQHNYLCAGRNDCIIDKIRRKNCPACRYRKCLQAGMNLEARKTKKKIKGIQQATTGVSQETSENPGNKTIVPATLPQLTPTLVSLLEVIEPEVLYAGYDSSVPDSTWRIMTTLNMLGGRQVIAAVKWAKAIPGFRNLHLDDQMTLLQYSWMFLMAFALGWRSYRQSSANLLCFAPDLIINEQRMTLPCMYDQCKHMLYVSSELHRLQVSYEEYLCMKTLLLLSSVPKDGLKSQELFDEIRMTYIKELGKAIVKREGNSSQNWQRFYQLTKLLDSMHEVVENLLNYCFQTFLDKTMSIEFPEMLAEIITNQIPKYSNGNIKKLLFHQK
Procedure: as §1, §2, §3

PR [3] = biological target: T3, PR (Homo sapiens, UniProt P06401); experiment: Co-transfection assay, PR agonist mode; assay type: cell-based; parameters: expressed in transfected cells; host or cells: CV-1 cells
T3 sequence (P06401 1-933): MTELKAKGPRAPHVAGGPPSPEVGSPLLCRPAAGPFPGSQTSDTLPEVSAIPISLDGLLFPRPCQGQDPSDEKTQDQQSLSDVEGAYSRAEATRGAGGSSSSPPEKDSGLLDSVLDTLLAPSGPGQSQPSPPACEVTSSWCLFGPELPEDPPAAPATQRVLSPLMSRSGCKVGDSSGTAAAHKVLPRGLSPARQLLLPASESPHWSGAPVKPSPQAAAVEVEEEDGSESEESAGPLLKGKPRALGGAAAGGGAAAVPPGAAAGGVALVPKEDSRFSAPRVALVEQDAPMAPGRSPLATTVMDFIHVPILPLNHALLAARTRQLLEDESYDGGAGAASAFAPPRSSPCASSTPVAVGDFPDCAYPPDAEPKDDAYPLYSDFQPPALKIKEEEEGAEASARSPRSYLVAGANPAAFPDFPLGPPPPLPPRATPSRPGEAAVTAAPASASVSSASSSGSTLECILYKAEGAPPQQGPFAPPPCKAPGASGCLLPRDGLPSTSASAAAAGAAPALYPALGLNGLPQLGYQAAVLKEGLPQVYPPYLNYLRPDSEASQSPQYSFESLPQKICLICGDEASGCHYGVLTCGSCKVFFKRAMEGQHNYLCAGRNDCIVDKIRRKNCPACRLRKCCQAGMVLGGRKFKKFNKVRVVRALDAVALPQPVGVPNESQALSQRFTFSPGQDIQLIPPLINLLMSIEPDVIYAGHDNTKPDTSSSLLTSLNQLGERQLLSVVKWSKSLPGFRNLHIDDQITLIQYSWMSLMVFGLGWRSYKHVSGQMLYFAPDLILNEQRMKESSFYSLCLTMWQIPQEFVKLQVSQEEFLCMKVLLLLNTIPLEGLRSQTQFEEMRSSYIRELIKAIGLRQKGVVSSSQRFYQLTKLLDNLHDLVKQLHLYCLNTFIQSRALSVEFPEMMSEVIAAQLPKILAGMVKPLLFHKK
Procedure: as §1, §2, §3

human AR [4] = biological target: T4, human AR (Homo sapiens, UniProt P10275); experiment: cell-based; assay type: cell-based
T4 construct: expressed in transfected cells; host or cells: CV-1 cells (African green monkey kidney fibroblasts), transient calcium phosphate transfection
T4 sequence (P10275 1-920): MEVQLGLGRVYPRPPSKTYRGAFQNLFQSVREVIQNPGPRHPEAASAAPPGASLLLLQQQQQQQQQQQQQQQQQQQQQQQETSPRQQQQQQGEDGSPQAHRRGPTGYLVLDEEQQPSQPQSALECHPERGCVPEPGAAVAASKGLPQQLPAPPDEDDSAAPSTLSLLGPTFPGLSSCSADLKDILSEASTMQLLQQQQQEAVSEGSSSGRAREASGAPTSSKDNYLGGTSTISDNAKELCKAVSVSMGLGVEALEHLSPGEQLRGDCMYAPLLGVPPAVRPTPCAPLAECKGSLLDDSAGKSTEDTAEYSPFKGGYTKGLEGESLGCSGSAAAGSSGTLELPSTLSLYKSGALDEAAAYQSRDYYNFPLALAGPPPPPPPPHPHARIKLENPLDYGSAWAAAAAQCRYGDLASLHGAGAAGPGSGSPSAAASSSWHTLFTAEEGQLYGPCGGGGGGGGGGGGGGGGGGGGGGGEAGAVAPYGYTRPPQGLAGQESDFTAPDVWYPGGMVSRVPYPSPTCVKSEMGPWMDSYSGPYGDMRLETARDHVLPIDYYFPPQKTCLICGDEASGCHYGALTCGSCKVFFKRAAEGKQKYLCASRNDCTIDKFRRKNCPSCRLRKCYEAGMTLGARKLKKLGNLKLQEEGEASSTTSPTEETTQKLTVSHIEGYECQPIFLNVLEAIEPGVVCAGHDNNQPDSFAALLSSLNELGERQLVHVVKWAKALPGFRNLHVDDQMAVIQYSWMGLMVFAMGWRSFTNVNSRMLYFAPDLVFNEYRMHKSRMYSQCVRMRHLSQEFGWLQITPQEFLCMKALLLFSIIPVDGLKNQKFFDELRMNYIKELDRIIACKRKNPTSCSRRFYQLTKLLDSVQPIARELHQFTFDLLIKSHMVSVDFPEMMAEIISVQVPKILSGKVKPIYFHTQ
Source text: The co-transfection assay provides a method for identifying functional agonists and partial agonists which mimic, or antagonists which inhibit, the effect of native hormones, and quantifying their activity for responsive IR proteins. In this regard, the co-transfection assay mimics an in vivo system in the laboratory. Importantly, activity in the co-transfection assay correlates very well with known in vivo activity, such that the co-transfection assay functions as a qualitative and quantitative predictor of a tested compounds in vivo pharmacology. See, e.g., T. Berger et al. 41 J. Steroid Biochem. Molec.
as §1
The reporter plasmid, MTV-LUC, contains the cDNA for firefly luciferase (LUC) under control of the mouse mammary tumor virus (MTV) long terminal repeat, a conditional promoter containing an androgen response element. See e.g, Berger et al. supra. In addition, pRS-β-Gal, coding for constitutive expression of E. colβ-galactosidase (β-Gal), was included as an internal control for evaluation of transfection efficiency and compound toxicity.
as §2, §3

human AR [5] = biological target: T4, human AR; experiment: cell-based; assay type: binding
PR [6] = biological target: T3, PR; experiment: cell-based

T1 sequence (P03372 whole entry): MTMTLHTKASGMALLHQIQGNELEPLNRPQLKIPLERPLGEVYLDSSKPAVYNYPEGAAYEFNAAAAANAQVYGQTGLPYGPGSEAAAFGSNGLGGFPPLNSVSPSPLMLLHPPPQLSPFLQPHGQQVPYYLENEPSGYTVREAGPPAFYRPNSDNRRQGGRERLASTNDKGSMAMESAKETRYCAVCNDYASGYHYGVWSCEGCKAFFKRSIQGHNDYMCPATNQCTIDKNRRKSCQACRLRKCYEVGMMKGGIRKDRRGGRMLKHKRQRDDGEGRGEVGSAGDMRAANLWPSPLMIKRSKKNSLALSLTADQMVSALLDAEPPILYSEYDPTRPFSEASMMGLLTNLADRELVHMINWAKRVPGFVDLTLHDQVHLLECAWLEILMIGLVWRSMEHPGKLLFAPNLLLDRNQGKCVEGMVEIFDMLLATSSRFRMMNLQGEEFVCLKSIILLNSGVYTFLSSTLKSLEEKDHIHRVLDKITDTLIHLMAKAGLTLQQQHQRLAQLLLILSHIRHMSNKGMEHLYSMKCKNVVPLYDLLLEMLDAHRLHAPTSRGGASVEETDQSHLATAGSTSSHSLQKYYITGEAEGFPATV

SMILES	EC50 (ER [1]) [µM]	IC50 (ER [2]) [µM]	IC50 (GR) [µM]	EC50 (PR [3]) [µM]	AR Antagonist CV-1 Cells Efficacy (%) (human AR [4]; % of maximal inhibition, fixed DHT at EC50, na = not active)	AR agonist/antagonist profile (in words) (human AR [4]; co-transfection assay, summary of Tables 1-2)	AR Agonist CV-1 Cells Efficacy (%) (human AR [4]; percent maximal response relative to reference agonist DHT, na = not active)	Ki (human AR [5]) [µM]	IC50 (PR [6]) [µM]
Cn1c(=O)cc(C(F)(F)F)c2cc3c(cc21)N1CCCC1(C)CC3 (racemic) [Compound 103, (R/S)-6,7,7a,11-Tetrahydro-1,7a-dimethyl-4-trifluoromethyl-2-pyridono[5,6-g]pyrrolidino[1,2-a]quinoline]	> 10	> 10	> 10	> 10	–	–	–	–	–
CC1(C)CCc2cc3c(C(F)(F)F)c(F)c(=O)[nH]c3cc2N1 [Compound 105, 7-Fluoro-1,2,3,4-tetrahydro-2,2-dimethyl-6-trifluoromethyl-8-pyridono[5,6-g]quinoline]	> 10	0.034	> 10	> 10	31	mixed AR agonists/antagonists	48	0.026	–
C[C@]12CCC(=O)C[C@@H]1CC[C@@H]1[C@@H]2CC[C@]2(C)[C@@H](O)CC[C@@H]12 [DHT, dihydrotestosterone, reference compound]	–	–	–	> 10	–	–	–	–	1.8

— patent publication EP0918774B9, “ANDROGEN RECEPTOR MODULATOR COMPOUNDS AND METHODS” (LIGAND PHARMACEUTICALS INCORPORATED, priority 1996, dated 1997)
